The target in one assay is T1, Cysteine protease ATG4B (Homo sapiens, UniProt Q9Y4P1).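 Further: Fluorescence-based dose-response confirmation assay measuring inhibition of ATG4B activity.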
T1 sequence (Q9Y4P1 whole entry): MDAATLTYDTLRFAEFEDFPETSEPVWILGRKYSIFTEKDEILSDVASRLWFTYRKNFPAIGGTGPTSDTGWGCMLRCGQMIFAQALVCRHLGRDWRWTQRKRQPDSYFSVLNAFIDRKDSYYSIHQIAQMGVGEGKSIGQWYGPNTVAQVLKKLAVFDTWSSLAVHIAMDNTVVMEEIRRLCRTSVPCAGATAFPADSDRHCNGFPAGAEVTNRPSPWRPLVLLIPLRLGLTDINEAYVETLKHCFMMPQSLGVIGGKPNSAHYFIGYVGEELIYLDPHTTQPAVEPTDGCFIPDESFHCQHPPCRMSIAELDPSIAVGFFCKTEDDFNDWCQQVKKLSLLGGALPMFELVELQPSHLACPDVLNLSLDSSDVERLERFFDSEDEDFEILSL
Format: functional.

In the next assay the target is Phospholipase A2 (Homo sapiens, UniProt P04054). The format is functional.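 Further: confirmatory dose-response counterscreen on phospholipase A2, testing hits that came from an ultra-high-throughput screen for ATG4B inhibitors.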
Chain of Phospholipase A2 (P04054 whole entry): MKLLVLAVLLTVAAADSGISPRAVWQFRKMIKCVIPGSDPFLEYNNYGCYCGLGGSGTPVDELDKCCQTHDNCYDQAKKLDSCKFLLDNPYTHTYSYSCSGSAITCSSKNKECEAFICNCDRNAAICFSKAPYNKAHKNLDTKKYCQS
The nature of assay [1]: alpha-synuclein stem-loop luciferase translation blockers – H4 neuroglioma cells, luminescence, confirmation (AID 1988). Format: functional, cell-based.
The target of another assay is Wee1-like protein kinase (Homo sapiens, UniProt P30291). The assay can be described thus: Dose Response Cell-based Assay for Inhibitors of Wee1 Degradation. [Related pubchem assays: 1410, 1321 ]. The format is functional.
Chain of Wee1-like protein kinase (P30291 whole entry): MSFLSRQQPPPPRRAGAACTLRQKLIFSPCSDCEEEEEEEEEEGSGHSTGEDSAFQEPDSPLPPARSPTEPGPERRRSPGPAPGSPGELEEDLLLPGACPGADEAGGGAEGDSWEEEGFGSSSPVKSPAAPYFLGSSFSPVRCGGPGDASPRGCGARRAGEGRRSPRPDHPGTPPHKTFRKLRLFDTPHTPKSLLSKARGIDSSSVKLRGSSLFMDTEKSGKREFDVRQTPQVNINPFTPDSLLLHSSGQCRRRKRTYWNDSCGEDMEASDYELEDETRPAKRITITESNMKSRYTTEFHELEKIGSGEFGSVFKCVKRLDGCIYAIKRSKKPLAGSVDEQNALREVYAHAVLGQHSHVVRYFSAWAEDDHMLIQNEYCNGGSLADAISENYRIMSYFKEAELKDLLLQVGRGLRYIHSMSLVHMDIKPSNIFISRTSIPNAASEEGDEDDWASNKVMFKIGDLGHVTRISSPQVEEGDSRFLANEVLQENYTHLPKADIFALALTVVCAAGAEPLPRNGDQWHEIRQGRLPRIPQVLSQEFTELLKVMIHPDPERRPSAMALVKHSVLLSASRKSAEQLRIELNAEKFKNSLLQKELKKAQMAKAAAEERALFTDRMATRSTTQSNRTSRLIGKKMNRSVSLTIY
A short description of assay [2]: Luminescence Cell-Based Dose Response HTS to Identify Inhibitors of 5'UTR Stem-Loop Driven Prion Protein mRNA Translation in H4 Neuroglioblastoma Cells. [Related pubchem assays: 1827 (Project Summary), 1813 (Primary HTS)]. Format: functional.
Assay [3] has as its target G2/mitotic-specific cyclin-B1 (Homo sapiens, UniProt P14635). The assay can be described thus: Counterscreen assay for inhibitors of Wee1 degradation: dose response cell-based assay to identify inhibitors of cyclin B degradation. [Related pubchem assays: 1410, 1321 ]. The format is functional.
Assay [4] can be described thus: luciferase reporter signal suppression in cells – H4 neuroglioma cells, luminescence, dose response (AID 1990). The format is functional, cell-based.
Assay [5] concerns Vero. The assay can be described thus: Vero cell viability after compound exposure – synthesized analogs, set II, cytotoxicity control for West Nile virus antiviral project, SAR follow-up (AID 2402). Format: functional. The note with it: Chlorocebus sabaeus.
Assay [6] can be described thus: NIH3T3 cell viability loss – ATP luminescence, mouse fibroblasts, counter-screen, dose response (AID 2010).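 Further: cells exposed to compound for about 90 hours before reading.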 The format is functional, cell-based.
The nature of assay [7]: DRD fibroblast viability loss – cell-based, non-viral oncogenic, luminescence, dose response (AID 1934). Format: functional. The note with it: Homo sapiens.
Assay [8] relates to Vero. The assay can be described thus: Vero 76 cell viability after compound exposure – Vero 76 cells, synthesized analogs, cytotoxicity control for West Nile virus antiviral project, SAR follow-up (AID 2414). The settings on record: Chlorocebus sabaeus. Format: functional.
The subject of assay [9] is BJ. The assay can be described thus: cells. Format: functional, cell-based. The settings on record: Homo sapiens.
Assay [10] is described as follows: cells. The format is functional, cell-based.
Assay [11] has as its system Streptococcus sp. 'group A'. The assay can be described thus: Streptococcus pyogenes SK(-)GAS viability under kanamycin – luminescence, BacTiterGlo, confirmation, counter-screen for streptokinase expression inhibitor project, dose response (AID 1900). The format is functional, organism-based.
For assay [12], the system named is Vero. The assay can be described thus: cells. The format is functional. The settings on record: Chlorocebus sabaeus.
Assay [13] is described as follows: NIH-3T3 fibroblast cytotoxicity, dose response, cytotoxicity control, cell-based, fluorescence, Alamar Blue, secondary assay (AID 2327).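 Further: NIH-3T3 mouse fibroblasts cultured with fluconazole at 8 µg/mL.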 The format is functional.
The nature of assay [14]: reduction of Shn3 3'UTR-driven luciferase in osteoblasts – cell-based, Clone20 osteoblasts, firefly luciferase, cherry-picked, dose response (AID 624132).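 Further: firefly luciferase luminescence from reporter carrying the Shn3 3'UTR in osteoblasts.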 Format: functional.
The nature of assay [15]: A Cell Based Assay for the Identification of Probe candidate Compounds with Anti- Venezuelan Equine Encephalitis virus. [Related pubchem assays: 2409, 2419, 1621, 2238, 2405, 2024, 2065, 2402, 2414, 1635, 1650, 2244 ]. The format is functional.
Assay [16] concerns Vero. The assay can be described thus: host cell viability loss, Vero E6 – synthesized analogs, cytotoxicity control for West Nile virus antiviral project, SAR follow-up (AID 2244). Format: functional. The note with it: Chlorocebus sabaeus.
For assay [17], the system named is BJ. The assay can be described thus: BJ-TERT-LT-ST fibroblast viability loss – cell-based, RAS-independent, luminescence, dose response (AID 1935).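 Further: BJ fibroblasts immortalized with TERT plus LT and ST oncogenes.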 Format: functional. The note with it: Homo sapiens.
Assay [18] deals with BJ. The assay can be described thus: BJ-TERT fibroblast viability loss – cell-based, RAS-independent, luminescence, dose response (AID 1933). Format: functional. The note with it: Homo sapiens.
The nature of assay [19]: Trypanosoma cruzi growth suppression in host cells – NIH3T3 host cells, beta-gal luminescence, confirmation (AID 2044).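 Further: intracellular parasites grown in NIH/3T3 mouse fibroblasts as host cells; luminescent beta-galactosidase reporter signal from transgenic T. cruzi replicating inside host cells; inhibitors lower the luminescence signal.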 Format: functional, cell-based.
Assay [20] is described as follows: loss of viability in HepG2 cells – cell-based, CellTiter-Glo, cherry-picked, cytotoxicity control for Shn3 inhibitor project, dose response (AID 624134). The format is functional.
Assay [21] in a line: fluconazole-exposed Candida albicans growth modulators – fluorescence, retest, confirmation (AID 2467). The format is functional, cell-based.
Assay [22] in a line: non-specific 3'UTR reporter inhibition in Clone20-Shn3RL – cell-based, Renilla luciferase, cherry-picked, counter-screen for Shn3 inhibitor project, dose response (AID 624133). Format: functional.
The subject of the next assay is Streptococcus. The assay can be described thus: GAS UMAA2166 growth inhibition – luminescence, BacTiterGlo, counter-screen for streptokinase expression inhibitor project, dose response (AID 1915).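 Further: potency for reduction of bacterial viability or growth.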 The format is functional, organism-based.
The next assay relates to INS1. The assay can be described thus: INS-1E survival protection against cytokine death – cell-based, luminescence, retest, dose response (AID 449756).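 Further: cell death triggered by IL-1 beta plus TNF-alpha plus IFN-gamma mixture; protective hits raise ATP signal compared with cytokine alone wells.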 The format is functional. The note with it: Rattus norvegicus.
Assay [23] is described as follows: cells. The format is functional, cell-based. The source holds these as a separate data set.
Assay [24] can be described thus: HPDE-C7 pancreatic duct cell viability loss – fluorescence, HTS (AID 430). Format: functional, cell-based. The settings on record: Homo sapiens.
Assay [25] can be described thus: viability loss of HPDE-C7K cells – cell-based, fluorescence, HTS, primary screen (AID 431). The settings on record: Homo sapiens. Format: functional.
For assay [26], the target named is Neuropeptides B/W receptor type 1 (Homo sapiens, UniProt P48145). The assay can be described thus: Fluorescence-based dose response cell-based high throughput screening assay to identify antagonists of the G-protein coupled receptor 7 (GPR7). [Related pubchem assays: 1952 (Screening assay (GPR7 antagonists).), 1880 (Summary AID.)]. The format is functional.
Chain of Neuropeptides B/W receptor type 1 (P48145 whole entry): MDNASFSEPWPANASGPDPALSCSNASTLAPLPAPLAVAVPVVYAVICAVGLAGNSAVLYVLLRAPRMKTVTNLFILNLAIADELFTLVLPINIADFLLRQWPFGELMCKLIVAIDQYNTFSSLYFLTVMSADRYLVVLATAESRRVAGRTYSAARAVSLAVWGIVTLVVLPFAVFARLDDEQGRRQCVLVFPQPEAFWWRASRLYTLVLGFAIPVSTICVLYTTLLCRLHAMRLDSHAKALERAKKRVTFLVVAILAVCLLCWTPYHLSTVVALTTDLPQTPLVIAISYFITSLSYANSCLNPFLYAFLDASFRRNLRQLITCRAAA
Assay [27] concerns the target Melanin-concentrating hormone receptor 1 (Homo sapiens, UniProt Q99705). The assay can be described thus: Fluorescence-based counterscreen for antagonists of the G-protein coupled receptor 7 (GPR7): cell-based high throughput dose response assay to identify antagonists of the melanin-concentrating hormone receptor 1 (MCHR1). Format: functional.
In another assay the target is Aspartyl aminopeptidase (Plasmodium falciparum 3D7, UniProt Q8I2J3).
Chain of Aspartyl aminopeptidase (Q8I2J3 whole entry): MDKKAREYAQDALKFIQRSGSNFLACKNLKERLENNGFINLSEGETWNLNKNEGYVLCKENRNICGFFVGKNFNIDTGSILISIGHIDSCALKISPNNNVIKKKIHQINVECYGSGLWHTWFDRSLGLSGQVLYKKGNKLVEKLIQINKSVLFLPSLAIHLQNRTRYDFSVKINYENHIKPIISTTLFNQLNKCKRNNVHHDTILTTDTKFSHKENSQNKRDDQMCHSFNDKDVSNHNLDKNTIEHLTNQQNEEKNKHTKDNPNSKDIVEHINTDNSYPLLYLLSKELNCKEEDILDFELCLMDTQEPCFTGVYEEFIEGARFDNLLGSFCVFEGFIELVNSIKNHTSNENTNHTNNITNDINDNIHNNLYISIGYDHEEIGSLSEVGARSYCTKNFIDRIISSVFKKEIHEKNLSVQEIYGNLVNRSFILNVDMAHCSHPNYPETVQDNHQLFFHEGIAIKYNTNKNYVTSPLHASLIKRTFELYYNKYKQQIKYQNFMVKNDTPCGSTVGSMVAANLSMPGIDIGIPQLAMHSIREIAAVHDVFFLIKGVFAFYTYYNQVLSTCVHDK
A further assay deals with Cytochrome P450 3A4 (Homo sapiens, UniProt P08684). The note with it: Potency.
Chain of Cytochrome P450 3A4 (P08684 whole entry): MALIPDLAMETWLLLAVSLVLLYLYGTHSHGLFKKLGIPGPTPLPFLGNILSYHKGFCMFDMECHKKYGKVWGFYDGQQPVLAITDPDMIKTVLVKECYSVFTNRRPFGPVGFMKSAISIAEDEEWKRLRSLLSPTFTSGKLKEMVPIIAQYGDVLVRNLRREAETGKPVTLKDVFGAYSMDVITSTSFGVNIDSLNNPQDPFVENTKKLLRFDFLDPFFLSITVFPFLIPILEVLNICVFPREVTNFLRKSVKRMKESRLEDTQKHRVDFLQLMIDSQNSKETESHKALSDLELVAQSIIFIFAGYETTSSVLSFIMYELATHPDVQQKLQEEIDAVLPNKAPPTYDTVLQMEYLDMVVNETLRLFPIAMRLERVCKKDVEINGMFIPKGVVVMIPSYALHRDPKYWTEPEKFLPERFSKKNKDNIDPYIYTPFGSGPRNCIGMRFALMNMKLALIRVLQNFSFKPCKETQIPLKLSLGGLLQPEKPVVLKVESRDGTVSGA
The target in the next assay is Procathepsin L (Homo sapiens, UniProt P07711).
Chain of Procathepsin L (P07711 whole entry): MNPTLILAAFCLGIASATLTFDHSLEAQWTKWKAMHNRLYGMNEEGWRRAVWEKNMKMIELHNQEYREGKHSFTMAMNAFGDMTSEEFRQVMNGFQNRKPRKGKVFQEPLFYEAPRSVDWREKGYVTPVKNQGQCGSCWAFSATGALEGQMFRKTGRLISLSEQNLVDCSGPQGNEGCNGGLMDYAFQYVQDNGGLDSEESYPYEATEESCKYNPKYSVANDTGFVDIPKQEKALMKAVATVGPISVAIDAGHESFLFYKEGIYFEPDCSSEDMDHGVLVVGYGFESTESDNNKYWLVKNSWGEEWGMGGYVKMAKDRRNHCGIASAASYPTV

The source made the active and inactive calls. Bounds are passed on as bounds.

Chain of Melanin-concentrating hormone receptor 1 (Q99705 whole entry): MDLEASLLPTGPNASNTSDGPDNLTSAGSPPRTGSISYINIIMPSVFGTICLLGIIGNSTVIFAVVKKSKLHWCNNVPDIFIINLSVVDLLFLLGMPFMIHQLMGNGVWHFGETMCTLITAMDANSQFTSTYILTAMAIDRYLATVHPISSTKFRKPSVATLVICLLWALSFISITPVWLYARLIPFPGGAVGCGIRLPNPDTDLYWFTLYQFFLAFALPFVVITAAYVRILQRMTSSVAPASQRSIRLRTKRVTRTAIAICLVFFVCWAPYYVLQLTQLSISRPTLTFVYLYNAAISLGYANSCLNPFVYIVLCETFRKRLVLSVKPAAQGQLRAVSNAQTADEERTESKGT
Chain of G2/mitotic-specific cyclin-B1 (P14635 whole entry): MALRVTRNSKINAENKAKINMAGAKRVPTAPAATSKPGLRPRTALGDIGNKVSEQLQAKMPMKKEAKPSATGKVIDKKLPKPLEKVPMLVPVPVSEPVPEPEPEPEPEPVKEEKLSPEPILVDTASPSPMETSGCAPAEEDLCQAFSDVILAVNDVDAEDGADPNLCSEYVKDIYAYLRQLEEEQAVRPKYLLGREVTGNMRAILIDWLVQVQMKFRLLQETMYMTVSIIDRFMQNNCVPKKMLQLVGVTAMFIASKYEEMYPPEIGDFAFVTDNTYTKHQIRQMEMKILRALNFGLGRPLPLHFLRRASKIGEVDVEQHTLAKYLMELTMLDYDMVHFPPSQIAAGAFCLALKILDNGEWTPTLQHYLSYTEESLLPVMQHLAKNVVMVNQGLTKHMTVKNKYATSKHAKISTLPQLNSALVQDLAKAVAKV

With `CCCC1=Nc2cc(C(=O)NCc3ccco3)ccc2Sc2ccccc21`, the IC50 on Cysteine protease ATG4B is 15.2 µM (active); at Phospholipase A2, 6.93 µM (active). For the same molecule, the EC50 in assay [1] is 8.6 µM (active); at Wee1-like protein kinase it was > 49.7 µM (not active); in [2], 11.4 µM (active); in assay [3], > 49.7 µM (not active); in assay [4], 11.1 µM (inconclusive).

As to `Oc1ccccc1C(Nc1nccs1)c1ccc2cccnc2c1O` (stereo not drawn), the CC50 in the assay with Vero [5] is 7.2 µM (active); in the assay on Vero [8], 21.6 µM (active); in the assay on Vero [12], 10.3 µM (active); with Vero [16], 8 µM (active). The EC50 in assay [6] is 9.11 µM (active); in assay [7], 10.7 µM (active); in the assay on BJ [9], 13.9 µM (active); in [1], 9.59 µM (active); in “cells [10]”, 12.5 µM (active); in assay [11], 2.3 µM (active). Further, the EC50 in assay [2] was 8.46 µM (active); in [13] it was 6.03 µM (active); in the assay with BJ [17], 9.11 µM (active); in the assay with BJ [18], 8.13 µM (inconclusive); in assay [19], 0.832 µM (active); in [4], 11.9 µM (active). Besides, the EC50 in assay [21] is 1.4 µM (active); in the assay with Streptococcus, 6.55 µM (active); in “cells [23]” it was > 350 µM (not active). In addition, the AC50 was 1.13 µM (active) in assay [14], 6.74 µM (active) in assay [20], 2.47 µM (active) in assay [22] and 1.95 µM (active) in the assay with INS1. The IC50 in assay [15] was 20.9 µM (active).

For the molecule `CCc1ccccc1NC(=O)CN1C(=O)C2CCCN2c2ncc(Cl)cc21` (stereo not drawn), the EC50 in assay [24] and in [25] was > 20 µM (not active) in each case. Also, the IC50 in assay [26] and in assay [27] was > 43.8 µM (not active) throughout.

Consider `CC1(C)CC(=O)c2c(oc3cc(O)c(O)cc23)C1`, for which the figures for the IC50 at Aspartyl aminopeptidase and against Procathepsin L were 1.25 µM (active) and > 59.6 µM (not active), respectively. For the same molecule, on Cytochrome P450 3A4, the AC50 is 31.6 µM (inconclusive).
